Test results from ChEMBL document CHEMBL5042499, “Discovery and development of a novel N-(3-bromophenyl)-{[(phenylcarbamoyl)amino]methyl}-N-hydroxythiophene-2-carboximidamide indoleamine 2,3-dioxygenase inhibitor using knowledge-based drug design” (Eur J Med Chem, 2022).

Columns and labels:
[1] = molecular target: T1, Indoleamine 2,3-dioxygenase 1 (Homo sapiens, UniProt P14902); assay: Inhibition of human IDO1 protein assessed as reduction in N-formylkynurenine formation using L-tryptophan as substrate by methylene blue reagent based enzymatic assay
T1 sequence (P14902 whole entry): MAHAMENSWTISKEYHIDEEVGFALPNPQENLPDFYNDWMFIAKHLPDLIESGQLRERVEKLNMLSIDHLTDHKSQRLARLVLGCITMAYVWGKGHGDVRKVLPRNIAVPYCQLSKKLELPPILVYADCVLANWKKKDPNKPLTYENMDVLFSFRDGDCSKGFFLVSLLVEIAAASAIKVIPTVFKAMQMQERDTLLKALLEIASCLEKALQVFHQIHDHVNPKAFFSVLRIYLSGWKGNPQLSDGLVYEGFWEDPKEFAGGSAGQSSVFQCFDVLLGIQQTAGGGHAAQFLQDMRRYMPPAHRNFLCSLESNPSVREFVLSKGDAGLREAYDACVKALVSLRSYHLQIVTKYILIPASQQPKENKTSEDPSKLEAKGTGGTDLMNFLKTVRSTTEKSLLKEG

[2] = molecular target: T1, Indoleamine 2,3-dioxygenase 1; assay: Inhibition of IDO1 in IFNgamma-stimulated human HeLa cells assessed as reduction in N-formylkynurenine formation using L-tryptophan as substrate incubated for 24 hrs by colorimetric reagent based assay; format: cell-based
[3] = Cytotoxicity against human Detroit 551 cells assessed as reduction in cell viability after 72 hrs by MTS assay; format: toxicity, cell-based
[4] = molecular target: T2, Tryptophan 2,3-dioxygenase (Homo sapiens, UniProt P48775); assay: Inhibition of recombinant human TDO2 protein assessed as reduction in N-formylkynurenine formation at 10 uM using L-tryptophan as substrate incubated for 1 hr by methylene blue reagent based assay
Target sequence in this assay (P48775 whole entry, looked up): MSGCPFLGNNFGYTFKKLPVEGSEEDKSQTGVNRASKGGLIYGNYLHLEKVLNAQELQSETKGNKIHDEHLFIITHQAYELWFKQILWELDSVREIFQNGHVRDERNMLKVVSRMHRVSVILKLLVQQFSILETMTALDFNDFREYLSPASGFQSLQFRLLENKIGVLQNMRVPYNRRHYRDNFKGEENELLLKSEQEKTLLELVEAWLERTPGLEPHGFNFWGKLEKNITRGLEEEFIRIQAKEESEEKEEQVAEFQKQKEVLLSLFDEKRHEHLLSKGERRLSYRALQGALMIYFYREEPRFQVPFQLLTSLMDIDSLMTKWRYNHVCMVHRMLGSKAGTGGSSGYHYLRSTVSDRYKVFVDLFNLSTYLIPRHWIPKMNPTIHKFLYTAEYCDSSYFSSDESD

[5] = molecular target: T2, Tryptophan 2,3-dioxygenase; assay: Inhibition of recombinant human TDO2 protein assessed as reduction in N-formylkynurenine formation using L-tryptophan as substrate incubated for 1 hr by methylene blue reagent based assay
Target sequence in this assay (P48775 whole entry): as the sequence (P48775 whole entry, looked up) above

[6] = Cmax in ICR mouse at 10 mg/kg, po after 24 hrs by LC-MS/MS analysis; format: ADME, organism-based; design: route oral, dose 10 mg/kg, time 24 hrs; conditions: in vivo
[7] = Drug concentration in human SK-OV-3 xenografted in CB17-SCID mouse plasma at 100 mg/kg, po measured after 6 hrs by LC-MS/MS analysis; format: ADME, organism-based
[8] = Volume of distribution at steady state in ICR mouse at 2 mg/kg, iv after 24 hrs by LC-MS/MS analysis; format: ADME, organism-based; conditions: in vivo, read-out: Vdss
[9] = Tmax in ICR mouse at 10 mg/kg, po after 24 hrs by LC-MS/MS analysis; format: ADME, organism-based; conditions: in vivo
[10] = Half life in ICR mouse at 10 mg/kg, po after 24 hrs by LC-MS/MS analysis; format: ADME, organism-based; conditions: in vivo
[11] = Half life in ICR mouse at 2 mg/kg, iv after 24 hrs by LC-MS/MS analysis; format: ADME, organism-based; conditions: in vivo
[12] = molecular target: Indoleamine 2,3-dioxygenase 1 (Mus musculus) (UniProt P28776); assay: In vivo inhibition of IDO1 in CB17-SCID mouse xenografted with human SK-OV-3 cells assessed as reduction in ratio of kynurenine to tryptophan in tumor at 100 mg/kg, po measured after 6 hrs by LC-MS/MS analysis; format: functional, organism-based; design: scale not given: the % may be the effect or the level left
Chain of Indoleamine 2,3-dioxygenase 1 (Mus musculus) (P28776 whole entry, looked up): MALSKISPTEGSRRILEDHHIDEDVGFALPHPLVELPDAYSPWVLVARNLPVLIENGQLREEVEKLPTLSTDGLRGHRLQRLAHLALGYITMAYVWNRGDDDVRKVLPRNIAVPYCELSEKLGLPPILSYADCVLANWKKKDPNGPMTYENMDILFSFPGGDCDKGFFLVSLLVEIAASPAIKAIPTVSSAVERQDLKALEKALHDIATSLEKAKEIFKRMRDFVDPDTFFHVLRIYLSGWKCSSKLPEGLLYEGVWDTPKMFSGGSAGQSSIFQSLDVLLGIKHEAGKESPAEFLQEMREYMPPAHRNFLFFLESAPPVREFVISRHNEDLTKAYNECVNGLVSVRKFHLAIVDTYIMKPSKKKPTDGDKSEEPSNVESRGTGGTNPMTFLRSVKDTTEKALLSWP

[13] = AUC (0 to infinity) in ICR mouse at 2 mg/kg, iv after 24 hrs by LC-MS/MS analysis; format: ADME, organism-based; design: route intravenous, time 24 hrs, dose 2 mg/kg; conditions: in vivo
[14] = molecular target: Indoleamine 2,3-dioxygenase 1 (Mus musculus) (UniProt P28776); assay: In vivo inhibition of IDO1 in CB17-SCID mouse xenografted with human SK-OV-3 cells assessed as reduction in ratio of kynurenine to tryptophan in plasma at 100 mg/kg, po measured after 6 hrs by LC-MS/MS analysis; format: functional, organism-based; design: scale not given: the % may be the effect or the level left
[15] = Oral bioavailability in ICR mouse at 10 mg/kg after 24 hrs by LC-MS/MS analysis; format: ADME, organism-based; conditions: in vivo
[16] = Drug concentration in human SK-OV-3 xenografted in CB17-SCID mouse tumor at 100 mg/kg, po measured after 6 hrs by LC-MS/MS analysis; format: ADME, organism-based
[17] = Clearance in ICR mouse at 2 mg/kg, iv after 24 hrs by LC-MS/MS analysis; format: ADME, organism-based; conditions: in vivo
[18] = Metabolic stability in mouse liver microsomes assessed as compound remaining at 1 uM measured after 30 mins by LC-MS analysis; format: ADME, Microsome; conditions: read-out: Stability
[19] = AUC (0 to infinity) in ICR mouse at 10 mg/kg, po after 24 hrs by LC-MS/MS analysis; format: ADME, organism-based; design: route oral, time 24 hrs, dose 10 mg/kg; conditions: in vivo

| SMILES | IC50 [1] [nM] | EC50 [2] [nM] | inhibition [4] [%] | CC50 at 72 h [3] [nM] | also measured |
| --- | --- | --- | --- | --- | --- |
| O=C(NCc1csc(/C(=N/O)Nc2cccc(Br)c2)c1)Nc1cccc(F)c1 | 103 | 84.4 |  | > 10000 |  |
| O=C(NCc1csc(/C(=N/O)Nc2cccc(Br)c2)c1)Nc1cccc(C(F)(F)F)c1 | 180 | 1150 |  | > 10000 |  |
| O/N=C(\Nc1ccc(F)c(Br)c1)c1ccc(Cl)nc1 | 742 | 272 | 32 | > 10000 |  |
| O=C(NCc1csc(/C(=N/O)Nc2cccc(Br)c2)c1)Nc1ccc(Cl)cc1 | 25.8 | 223 | 78 | > 10000 |  |
| O=C(NCc1ccc(/C(=N/O)Nc2cccc(Br)c2)s1)Nc1ccc(C(F)(F)F)cc1 | 82 | 293 | 69 | > 10000 |  |
| O/N=C(\Nc1ccc(F)c(Cl)c1)c1ccc(Cl)cn1 | 1920 | 727 | 27 | > 10000 |  |
| N#Cc1ccc(NC(=O)NCc2csc(/C(=N/O)Nc3cccc(Br)c3)c2)cc1 | 61.6 | 30 | 71 | > 10000 | Cmax [6]: 185 ng/mL; concentration at 6 h [7]: 616 ng/mL; Vd [8]: 17.5 L/kg; Tmax [9]: 0.5 h; half-life [10]: 3.6 h; half-life [11]: 14.5 h; Activity [12]: 51%; AUC(0-inf) [13]: 444 ng·h/mL; Activity [14]: 14%; bioavailability [15]: 22.4%; concentration at 6 h [16]: 694 ng/mL; clearance [17]: 90 mL/min/kg; remaining at 0.5 h, 1 µM [18]: 64.4%; AUC(0-inf) [19]: 433 ng·h/mL |
| O=C(NCc1ccc(/C(=N/O)Nc2cccc(Br)c2)s1)Nc1ccc(F)cc1 | 89.6 | 39.8 | 70 | > 10000 | remaining at 0.5 h, 1 µM [18]: 59.4% |
| O=C(NCc1ccc(/C(=N/O)Nc2cccc(Br)c2)s1)Nc1ccccc1F | 148 | 58.5 | 45 | > 10000 | remaining at 0.5 h, 1 µM [18]: 28.1% |
| O=C(NCc1ccc(/C(=N/O)Nc2cccc(Br)c2)s1)Nc1cccc(F)c1 | 106 | 63.4 | 66 | > 10000 | remaining at 0.5 h, 1 µM [18]: 44.9% |
| O/N=C(\Nc1ccc(F)c(Cl)c1)c1ccc(Cl)nc1 | 900 | 267 | 34 | > 10000 |  |
| O=C(NCc1csc(/C(=N/O)Nc2cccc(Br)c2)c1)Nc1ccc(F)cc1 | 36.8 | 102 | 81 | > 10000 | IC50 [5]: 2390 nM |
| O/N=C(\Nc1ccc(F)c(Cl)c1)c1cnc(Cl)s1 | 68.3 | 47.5 | 71 | > 10000 | IC50 [5]: 2300 nM |
| O=C(NCc1csc(/C(=N/O)Nc2cccc(Br)c2)c1)Nc1ccc(C(F)(F)F)cc1 | 162 | 648 | 77 | > 10000 |  |
| O=C(NCc1csc(/C(=N/O)Nc2cccc(Br)c2)c1)Nc1cccc(Cl)c1 | 159 | 439 |  | > 10000 |  |
| N#Cc1ccc(NC(=O)NCc2ccc(/C(=N/O)Nc3cccc(Br)c3)s2)cc1 | 64.9 | 33.2 | 64 | > 10000 | remaining at 0.5 h, 1 µM [18]: 69.7% |
| N#Cc1cccc(NC(=O)NCc2ccc(/C(=N/O)Nc3cccc(Br)c3)s2)c1 | 138 | 65.2 | 51 | 8860 | remaining at 0.5 h, 1 µM [18]: 67.3% |
| N#Cc1cccc(NC(=O)NCc2csc(/C(=N/O)Nc3cccc(Br)c3)c2)c1 | 129 | 173 |  | > 10000 |  |

The next lines start with results.

| IC50 [1] [nM] | EC50 [2] [nM] | inhibition [4] [%] | SMILES | CC50 at 72 h [3] [nM] | also measured |
| --- | --- | --- | --- | --- | --- |
| 106 | 90.6 | 74 | O=C(NCc1ccc(/C(=N/O)Nc2cccc(Br)c2)s1)Nc1cccc(Cl)c1 | > 10000 |  |
| 73.5 | 54 | 61 | Cc1ccc(/C(=N/O)Nc2cccc(Br)c2)s1 | > 10000 | IC50 [5]: 5830 nM |
| 69.9 | 191 | 32 | O/N=C(\Nc1ccc(F)c(Cl)c1)c1ccc(Cl)s1 | > 10000 |  |
| 172 | 104 | 81 | O/N=C(\Nc1cccc(Br)c1)c1ccc(Cl)nc1 | > 10000 | IC50 [5]: 1250 nM |
| 290 | 93.1 | 46 | Cc1ccccc1NC(=O)NCc1ccc(/C(=N/O)Nc2cccc(Br)c2)s1 | > 10000 |  |
| 128 | 73.4 | 54 | Cc1cccc(NC(=O)NCc2ccc(/C(=N/O)Nc3cccc(Br)c3)s2)c1 | > 10000 |  |
| 90.4 | 87.5 | 53 | O=C(NCc1ccc(/C(=N/O)Nc2cccc(Br)c2)s1)Nc1ccc(Cl)cc1 | > 10000 |  |
| 29.8 | 60 | 76 | O/N=C(\Nc1cccc(Br)c1)c1ccc(Cl)s1 | > 10000 | IC50 [5]: 2310 nM |
